Assay results as given in US8592462B2, “Pirfenidone treatment for patients with atypical liver function” (Intermune, Inc., priority 2008, dated 2013).

Key:
[1] = Study of 345 idiopathic pulmonary fibrosis patients on pirfenidone 2403 mg/day: liver function test (AST/ALT) abnormalities and response to dosing regimen; assay type: in vivo; set-up: key to Grade of AST or ALT abnormality after dose modification / Grade of ALT after dose modification / Grade of liver function test at resolution: 0: WNL; 1: >ULN-2.5 × ULN; >2.5-5 × ULN; 3: >5-20 × ULN; 4: >20 × ULN
Protocol: Patients begin pirfenidone treatment by receiving escalating doses of pirfenidone over a period of 15 days until the full maintenance dose is reached. Specifically, from days 1 to 7, patients are administered one capsule of 267 mg pirfenidone three times per day. During days 8 to 14, patients receive two capsules of 267 mg pirfenidone three times per day. From day 15 onward, patients are treated with three capsules of 267 mg pirfenidone three times per day. Pirfenidone is administered orally, and each dose should be taken with food. If the patient is unable to eat, then the pirfenidone dose should be taken with milk or juice (excluding grapefruit juice).
Once the full maintenance dose is reached, pirfenidone is administered orally to patients three times per day to provide a daily dose of 2403 mg pirfenidone. Each of the three doses of 801 mg pirfenidone includes three capsules of 267 mg pirfenidone each. The contents of the pirfenidone 267 mg capsules are pirfenidone (82.15%); croscarmellose sodium (8.15%); microcrystalline cellulose (7.39%); povidine, USP, EP (1.85%); and magnesium stearate (0.46%).
Patients are treated with pirfenidone for up to 72 weeks. Some patients are treated longer than 72 weeks. At weeks 2, 4, 6, 12, and every 12 weeks (±2 weeks) thereafter during the treatment period, with the exception of week 72 and the treatment completion visit, patients are examined and histories are collected as detailed in the steps below.
4. Clinical laboratory tests are performed, including hematology, serum chemistries, pregnancy tests for women of childbearing capacity, and urinalysis with microscopic examination.
Patients were treated with pirfenidone in accordance with Example 1. […] As described in Example 1, serum chemistry tests were performed at scheduled intervals during the treatment period to monitor various parameters, including biomarkers of liver function such as alanine transaminase (ALT), aspartate transaminase (AST), bilirubin, alkaline phosphate (ALP), and gamma-glutamyl transferase (GGT).
The patient continued to receive the full target dose of 2403 mg/day. While receiving the full target dose, the patient was monitored for AST, ALT, and bilirubin levels.
In one patient, study drug dose was reduced to 1602 mg/day for the remainder of study participation (from Day 51 to Day 602), and the Grade 1 AST or ALT abnormality returned to Grade 0. For the second patient, study drug dose was reduced to 1602 mg/day and then increased to 2403 mg/day for remainder of study participation, and ALT returned to Grade 0. The third patient had study drug dose reduced to 801 mg/day, ultimately completing study at 1602 mg/day, at which time ALT returned to Grade 0. The remaining patients (46 patients) received no dose modification.

[2] = Gamma-glutamyl transferase observed in patients receiving pirfenidone; assay type: in vivo; conditions: some patients receiving pirfenidone
Excerpt: In some embodiments, the biomarker of liver function is alanine transaminase, aspartate transaminase, bilirubin, and/or alkaline phosphatase. […] In any of the embodiments described herein, biomarkers of liver function can exclude gamma-glutamyl transferase. In another embodiment, the abnormal level of alanine transaminase, aspartate transaminase, or alkaline phosphatase is greater than about 2.5-fold increased compared to the upper limit of normal (ULN). In a related embodiment, the abnormal level of alanine transaminase, aspartate transaminase, or alkaline phosphatase is greater than about 2.5- to about 5-fold increased compared to the upper limit of normal (ULN), i.e. a “liver function Grade 2 abnormality”. In some embodiments, the abnormal level of bilirubin is greater than about 1.5- to about 3-fold increased compared to the upper limit of normal (ULN), i.e., a “liver function Grade 2 abnormality”.

[3] = IPF patients, compassionate use; cited from earlier work
[4] = one year treatment, chronic pulmonary fibrosis; cited from earlier work

In the case of `Cc1ccc(=O)n(-c2ccccc2)c1` [pirfenidone, 5-methyl-1-phenyl-2-(1H)-pyridone], the “Grade of ALT after dose modification” value ([1]; Grade 1 patient, dose reduced to 801 mg/day, completing study at 1602 mg/day) is reported as 0, the “Grade of AST or ALT abnormality after dose modification” value ([1]; Grade 1 patient, dose reduced to 1602 mg/day for remainder of study (Day 51 to Day 602)) is reported as 0 and the “Grade of ALT after dose modification” value ([1]; Grade 1 patient, dose reduced to 1602 mg/day, then increased to 2403 mg/day for remainder of study) is reported as 0. The “Grade of elevation at end of study” value ([1]; Grade 2 patient continued on 2403 mg/day, history of steatosis, Grade 1 before treatment, dose reduced for unrelated reasons (rash, diarrhea)) was 1 (>ULN-2.5 × ULN), the “Grade of AST elevation at the last documented assessment” value ([1]; Grade 2 patient, no dose modification, Grade 1 AST and ALT at baseline) was 1 (>ULN-2.5 × ULN) and the “Grade of liver function test at resolution” value ([1]; Grade 2 patient, continued full daily dose of 2403 mg/day) was 0. For the same compound, the “transaminase levels after re-escalation” value ([1]; Grade 2 patient, treatment temporarily discontinued for acute cerebral artery occlusion, escalated back to 2403 mg/day) was “returned to normal”, the “Grade of abnormality at last documented values” ([1]; Grade 3 patient with Grade 1 at screening and/or baseline, discontinued for lung transplant) was 1 (>ULN-2.5 × ULN) and the “AST and ALT elevations at the last documented value” ([1]; Grade 3 patient with Grade 1 at screening and/or baseline, study drug interrupted, then discontinued) was “normalized”. For the same compound, the “patients developing a Grade 2 liver function test abnormality in AST and/or ALT levels” value ([1]; after pirfenidone 2403 mg/day) was “Fifteen”, the “patients developing Grade 3 liver function abnormality in AST and/or ALT levels” value ([1]; after pirfenidone administration) was “Four” and the “patients exhibiting a Grade 1 elevation in AST or ALT levels after pirfenidone administration” value ([1]; of 345 IPF patients, 2403 mg/day, patients without a baseline liver function abnormality) was 49 patients. For the same compound, the “patients with Grade 1 liver function test elevation having a treatment emergent adverse event of increased AST or ALT” value ([1]; of the 49 Grade 1 patients) was “three”, the “patients with Grade 2 abnormality with reported treatment emergent adverse events of increased AST or ALT or hepatitis” value ([1]; of the fifteen Grade 2 patients) was 12 patients and the “patients who discontinued study drug for elevated liver function tests” value ([1]; of the four Grade 3 patients) was “Two”. For the same compound, the “patients who discontinued treatment due to abnormal liver function tests in AST and/or ALT levels” value ([1]; of the twelve Grade 2 patients with adverse event, Grade 2 AST coincided with Grade 3 ALT) was “One”, the “outcome of rechallenge with the full dose” value ([1]; one of the seven Grade 2 patients with permanent dose reduction, rechallenged at 2403 mg/day) was “recurrence of Grade 2 elevation in ALT levels” and the “transaminases at study completion” value ([1]; seven Grade 2 patients with permanent dose reduction (3 at 801 mg/day, 4 at 1602 mg/day)) was “resolution of transaminases, except for one patient that had a Grade 1 elevation at study completion”. For the same compound, the “liver enzymes at study completion” value ([1]; two Grade 2 patients, temporary dose reduction or discontinuation, rechallenged and escalated back to 2403 mg/day) was “normal liver enzymes”, the “resolution of abnormalities after discontinuation” value ([1]; two Grade 3 patients who discontinued for elevated liver function tests, Grade 2 and Grade 3 last documented) was “had not resolved” and the gamma-glutamyl transferase [2] was “Elevated gamma-glutamyl transferase has been observed in some patients receiving pirfenidone, without clinical liver impairment”. For the same compound, the “adverse events in hematology or blood chemistry” value [3] was “No adverse events in hematology or blood chemistry” and the “liver dysfunctions, hematologic abnormalities, allergic or shock reactions during treatment” value [4] was “no liver dysfunctions, hematologic abnormalities, or allergic or shock reactions”.
